Laboratory results as given in patent publication US4828979A, “Nucleotide analogs for nucleic acid labeling and detection” (Life Technologies, Inc., priority 1984, dated 1989).
Read-outs that look alike come from different tables or passages of the source.

Experiments:
human β-globin gene = assay: Detection of single-copy gene sequence in Southern blot of Eco RI digested human DNA; details: NBT/BCIP dye system; probe 100 ng/ml, hybridization 16-24 hours
Protocol: A plasmid containing the 1.1 Kb Mst II fragment of the human β-globin gene in the Eco RI site of pBR322 (obtained from Dr. Y. W. Kan, UCSF) was nick translated with either Biotin-n-dATP in the presence of dTTP, dCTP, and dGTP, or Biotin-n-dCTP in the presence of dATP, dTTP, and dGTP. All nucleotides were at 20 μM and the reaction was allowed to proceed for 90 minutes. Conditions for nick translation of the DNA probe and purification of the biotin-labeled material are given in the manual of the BRL DNA Detection System.
The biotinylated probe was hybridizedto a Southern blot of Eco RI digested human DNA or to an Eco RI digest of the plasmid DNA. Probe concentration was 100 ng/ml and hybridization was allowed to proceed for 16-24 hours under conditions described by Leary et al. (Leary, J. J., Brigati, D. J. and Ward, D. C. (1983) Proc. Natl. Acad. Sci. USA 80 4045-4049). The filter was developed with the BRL Detection System as described in the system's instruction manual. The single copy β-globin gene Fragment at 5.2 Kb was observed within 3 hours of staining with the NBT/BCIP dye system for DNA probes labeled with Biotin-n-dATP where n=3, 7, 10 or 14 and Biotin-n-dCTP where n=7 or 10.

[1] = system: streptavidin-biotin alkaline phosphatase system; assay: Sensitivity of detection of probes biotinylated with various linker lengths, spotted on nitrocellulose
Protocol: (§1) The reaction volume was 1 ml. At 10 minutes, 30 minutes and 90 minutes, 200 μl of the reaction mixture was removed and the reaction quenched with 30 mM EDTA. The DNA from each sample was purified on a Sephade® G-50 column. […] In Table 2, "+" or "-" indicates the presence or absence, respectively of visible spots; it can be seen that a high degree of sensitivity exists even with a relatively low level of biotin incorporation.
Probes biotinylated with various linker lengths were then compared for sensitivity of detection. Plasmid DNA was nick translated according to the described protocol with Biotin-n-dATP, for n=7, 14, 3 or 10. The biotinylated DNA's were then purified from unincorporated nucleotides by gel filtration on Sephadex® G-50 in 1×SSC (0.15 M NaCl, 0.015 M sodium citrate) containing 0.1% SDS. The biotinylated DNA was diluted into 6×SSC containing 0.2 μg/μl sheared herring sperm DNA and spotted onto nitrocellulose paper in the range of 50 pg/5 μl to 1 pg/5 μl. After 30 minutes' incubation in the NBT/BCIP dye mixture of the BRL DNA Detection System, 2 pg spots of Bio-7, 14 or 10-dATP labeled probe and a 5 pg spot of Bio-3-dATP labeled probe were visible. After 1.5 hours, the 1 pg spot of each biotin-dATP-labeled probe was visible.

DNA polymerase I [2] = target: T1, DNA polymerase I (Escherichia coli, UniProt P00582); assay: Incorporation of dATP/dCTP and analogs into plasmid DNA by nick translation (3H-dGTP tracer); format: biochemical, E. coli; details: 1.5 h, tracer 3H-dGTP incorporation relative to reaction mixture containing dNTP's and no derivatives, duplicate figures = two determinations
T1 construct: purchased BRL (Nick Translation System)
T1 sequence (P00582 whole entry): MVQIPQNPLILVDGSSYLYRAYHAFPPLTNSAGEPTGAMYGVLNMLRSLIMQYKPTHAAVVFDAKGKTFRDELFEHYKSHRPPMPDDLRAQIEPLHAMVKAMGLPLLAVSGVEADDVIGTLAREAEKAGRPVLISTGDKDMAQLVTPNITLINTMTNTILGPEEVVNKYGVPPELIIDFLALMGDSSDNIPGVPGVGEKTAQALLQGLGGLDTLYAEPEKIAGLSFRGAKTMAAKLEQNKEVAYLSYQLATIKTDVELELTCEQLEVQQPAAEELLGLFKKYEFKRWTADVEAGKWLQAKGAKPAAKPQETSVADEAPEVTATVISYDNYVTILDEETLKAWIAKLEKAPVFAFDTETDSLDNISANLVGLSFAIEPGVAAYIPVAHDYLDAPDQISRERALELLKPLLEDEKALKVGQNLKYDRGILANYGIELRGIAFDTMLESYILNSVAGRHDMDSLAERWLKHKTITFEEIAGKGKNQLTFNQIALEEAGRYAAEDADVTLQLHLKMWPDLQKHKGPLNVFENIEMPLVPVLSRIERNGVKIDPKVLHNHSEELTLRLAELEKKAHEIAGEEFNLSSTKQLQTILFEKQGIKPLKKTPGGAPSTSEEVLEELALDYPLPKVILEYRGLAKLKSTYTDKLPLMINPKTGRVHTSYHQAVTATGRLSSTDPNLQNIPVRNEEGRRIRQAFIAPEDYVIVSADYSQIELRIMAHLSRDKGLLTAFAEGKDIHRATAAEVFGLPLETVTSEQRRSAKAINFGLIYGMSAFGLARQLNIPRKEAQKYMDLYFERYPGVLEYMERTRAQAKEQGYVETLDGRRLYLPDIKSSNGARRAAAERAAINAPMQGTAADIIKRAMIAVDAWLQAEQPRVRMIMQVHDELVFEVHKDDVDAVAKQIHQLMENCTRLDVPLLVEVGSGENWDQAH
Protocol: Incorporation into Plasmid DNA of Biotinylated dATP Derivatives
The time course and levels of incorporation were studied as a function of linker size.
(§2) Using the BRL Nick Translation System, dATP and various derivatives were incorporated into plasmid DNA.
(§3) At each time point of interest, 2 μl from the reaction mixture was withdrawn, spotted on glass fiber filters (GF/C), washed in 10% trichloroacetic acid (TCA) once and 5% TCA twice, and dried after washing in alcohol. The filters were counted in a liquid scintillation counter.
The relative levels of incorporation of the modified nucleotides at the 90 minute time point are seen in Table 1 below, in which the data are reported as percent incorporation of the tracer radio-nucleotide (^3 H-dGTP) relative to incorporation resulting from a reaction mixture containing dNTP's and no derivatives. Duplicate figures indicate two determinations. Results for dCTP and analogs appear also.

DNA polymerase I [3] = target: T1, DNA polymerase I; assay: Incorporation of various levels of Bio-7-dATP into plasmid DNA by nick translation; format: biochemical, E. coli
Protocol: as §2
To examine the detection sensitivity of probes made from the biotinylated nucleotides of the present invention, incorporation of various levels of Bio-7-dATP into plasmid DNA was carried out by nick translation as previously disclosed.
as §1

DNA polymerase I [4] = target: T1, DNA polymerase I; assay: Incorporation using radiolabelled biotin-nucleotide (32P-dCTP and 3H-biotin); format: biochemical, E. coli; details: 20 μM [3H-biotin]-7-dATP; FIG. 6
Protocol: as §2, §3
Using the same protocol, incorporation was then performed using a radiolabelled biotin-nucleotide. Thus, the level of biotin incorporation was directly determined. 200 μl of the reaction mixture contained 10 μCi of α-^32 PdCTP and either 20 μM dATP or 20 μM [^3 H-biotin]-7-dATP. […] The lower curves show the time courses of incorporation of ^32 P-dCMP and the tritium labelled and biotinylated derivative of dAMP.

[5] = after 30 minutes' incubation in NBT/BCIP dye mixture
[6] = 90 min, 15° C., read-out: % Incorporation (90 min.)

Compound	time of staining within which single copy β-globin gene fragment at 5.2 Kb was observed (human β-globin gene)	spot of labeled probe visible (sensitivity) [1, 5]	activity at 20 µM (DNA polymerase I [2]; [6])	also measured
O=C(CCCC[C@@H]1SC[C@@H]2NC(=O)N[C@@H]21)NCCCCCCNc1ncnc2c1ncn2[C@H]1C[C@H](O)[C@@H](COP(=O)(O)OP(=O)(O)OP(=O)(O)O)O1 [Biotin-7-dATP, N^6-(6-hexylamidobiotin)-2'-deoxyadenosine 5'-triphosphate]	≤ 3 h	2 pg	53%	
Nc1ccn([C@H]2C[C@H](O)[C@@H](COP(=O)(O)OP(=O)(O)OP(=O)(O)O)O2)c(=O)n1 [dCTP, reference compound]			100%	
O=C(CCCC[C@@H]1SC[C@@H]2NC(=O)N[C@@H]21)NCCCCCCNc1ccn([C@H]2C[C@H](O)[C@@H](COP(=O)(O)OP(=O)(O)OP(=O)(O)O)O2)c(=O)n1 [Biotin-7-dCTP]	≤ 3 h		44%	
O=C(CCCCCNC(=O)CCCC[C@@H]1SC[C@@H]2NC(=O)N[C@@H]21)NCCCCCCNC(=O)CNc1ncnc2c1ncn2[C@H]1C[C@H](O)[C@@H](COP(=O)(O)OP(=O)(O)OP(=O)(O)O)O1 [Biotin-17-dATP]			6.7%	
NCCCCCCNc1ccn([C@H]2C[C@H](O)[C@@H](COP(=O)(O)OP(=O)(O)OP(=O)(O)O)O2)c(=O)n1 [N^4 --(6-aminohexyl)dCTP, N^4-(6-aminohexyl)dCTP]			74%	
O=C(CCCC[C@@H]1SC[C@@H]2NC(=O)N[C@@H]21)NCCCCCC(=O)NCCNc1ncnc2c1ncn2[C@H]1C[C@H](O)[C@@H](COP(=O)(O)OP(=O)(O)OP(=O)(O)O)O1 [Biotin-10-dATP]	≤ 3 h	2 pg	15%	
O=C(CCCC[C@@H]1SC[C@@H]2NC(=O)N[C@@H]21)NCCNc1ccn([C@H]2C[C@H](O)[C@@H](COP(=O)(O)OP(=O)(O)OP(=O)(O)O)O2)c(=O)n1 [Biotin-3-dCTP]			12%	
NCCCCCCNc1ncnc2c1ncn2[C@H]1C[C@H](O)[C@@H](COP(=O)(O)OP(=O)(O)OP(=O)(O)O)O1 [N^6 --aminohexyldATP, N^6-(6-aminohexyl)dATP]				activity at 20 µM (DNA polymerase I [2]; read-out: % Incorporation (90 min.), 90 min, 15° C.): 67%
N^6 -(6-hexylamidobiotin-2'-deoxyadenosine 5'-monophosphate [Bio-7-dAMP]				Bio-7-dAMP per Kb (DNA polymerase I [3]; 10 min nick translation): 7 per Kb; Bio-7-dAMP per Kb (DNA polymerase I [3]; 30 min nick translation): 35 per Kb; Bio-7-dAMP per Kb (DNA polymerase I [3]; 90 min nick translation): 98 per Kb
O=C(CCCC[C@@H]1SC[C@@H]2NC(=O)N[C@@H]21)NCCCCCCNC(=O)CNc1ncnc2c1ncn2[C@H]1C[C@H](O)[C@@H](COP(=O)(O)OP(=O)(O)OP(=O)(O)O)O1 [Biotin-10'-dATP]			6.9%	
Nc1ncnc2c1ncn2[C@H]1C[C@H](O)[C@@H](COP(=O)(O)OP(=O)(O)OP(=O)(O)O)O1 [dATP, reference compound]			100%	
O=C(CCCCCNC(=O)CCCC[C@@H]1SC[C@@H]2NC(=O)N[C@@H]21)NCCCCCCNc1ncnc2c1ncn2[C@H]1C[C@H](O)[C@@H](COP(=O)(O)OP(=O)(O)OP(=O)(O)O)O1 [Biotin-14-dATP]	≤ 3 h	2 pg	33%	
O=C(CCCC[C@@H]1SC[C@@H]2NC(=O)N[C@@H]21)NCCNc1ncnc2c1ncn2[C@H]1C[C@H](O)[C@@H](COP(=O)(O)OP(=O)(O)OP(=O)(O)O)O1 [Biotin-3-dATP]	≤ 3 h	5 pg	29%	
O=C(CCCCCNC(=O)CCCC[C@@H]1SC[C@@H]2NC(=O)N[C@@H]21)NCCCCCCNc1ccn([C@H]2C[C@H](O)[C@@H](COP(=O)(O)OP(=O)(O)OP(=O)(O)O)O2)c(=O)n1 [Biotin-14-dCTP]			42%	
O=C(CCCC[C@@H]1SC[C@@H]2NC(=O)N[C@@H]21)NCCCCCC(=O)NCCNc1ccn([C@H]2C[C@H](O)[C@@H](COP(=O)(O)OP(=O)(O)OP(=O)(O)O)O2)c(=O)n1 [Biotin-10-dCTP]	≤ 3 h	2 pg	22%	spot of labeled probe visible (sensitivity) ([1]; after 1.5 hours in NBT/BCIP dye mixture): 1 pg
O=C(CCCC[C@@H]1SC[C@@H]2NC(=O)N[C@@H]21)NCCCCCCNc1ncnc2c1ncn2[C@H]1C[C@H](O)[C@@H](COP(=O)(O)OP(=O)(O)OP(=O)(O)O)O1 [[^3 H-biotin]-7-dATP]				correspondence of time courses of incorporation of 32P-dCMP and the tritium labelled and biotinylated derivative of dAMP (DNA polymerase I [4]): close correspondence
